Laboratory results: paper PMC10537087, “Evaluating Known Zika Virus NS2B-NS3 Protease Inhibitor Scaffolds via In Silico Screening and Biochemical Assays” (Pharmaceuticals, 2023)
Where two headings read alike, the source gives them in different places.

Assays:
[1] = target: T1, ZIKV NS2B-NS3pro (Zika virus, UniProt A0A024B7W1, C1582S/C1645S/R1467A/R1531G); conditions: cited from earlier work; for cause of inhibition after resynthesis: parallel study, ref [54]; for mode of inhibition: ref [33]
[2] = system: Vero (ATCC CCL-81) cell line; set-up: method as in Serafim et al. [64]; conditions: comparison control; ref Serafim et al. [64]; cited from earlier work
[3] = system: ZIKV (PE243); set-up: method as in Serafim et al. [64]; conditions: comparison control, ref Serafim et al. [64]; cited from earlier work
[4] = target: T1, ZIKV NS2B-NS3pro; assay: ZIKV NS2B-NS3pro inhibitory assay with fluorogenic substrate Bz-Nle-Lys-Lys-Arg-AMC; format: biochemical; conditions: for % ZIKV NS2B/NS3pro Inhibition [Enzyme] = 0.2 nM / % ZIKV NS2B/NS3pro Inhibition [Enzyme] = 2 nM: CHAPS 1 mM; for % ZIKV NS2B/NS3pro Inhibition (100 µM) 0.001% Triton: 0.001% Triton X-100, no Tween-20; for % ZIKV NS2B/NS3pro Inhibition (100 µM) 0.01% Triton: 0.01% Triton X-100, no Tween-20; for % ZIKV NS2B/NS3pro Inhibition (100 µM) BSA: 10 min pre-incubation with BSA 1 mg/mL before enzyme; for % ZIKV NS2B/NS3pro Inhibition (100 µM) Without Preincubation: no preincubation; for Hill Slope Replica 1 / Hill Slope Replica 2: from dose-response curve
[5] = Solubility in cruzain assay buffer; format: physicochemical; conditions: sodium acetate 0.1 M pH 5.5, β-mercaptoethanol 10 mM
[6] = Cytotoxicity MTT assay (CC50); conditions: African green monkey, Vero (ATCC CCL-81) cells
Procedure: (§1) The Vero (ATCC® CCL-81™) cell line was used for the cytotoxicity assays and antiviral activity evaluation against ZIKV. Cells were cultured in Eagle’s minimum essential media (MEM) (Cultilab, Campinas, Brazil). The media was supplemented with 5% fetal bovine serum (FBS) (Cultilab, Brazil), in addition to 100 IU/mL penicillin (Cellofarm, Rio De Janeiro, Brazil), 100 μg/mL streptomycin (Merck, Darmstadt, Germany), and 0.25 μg/mL amphotericin B (Cultilab, Brazil).
(§2) Cells were seeded in 96-well microplates (4.0 × 10^4 cells per well) and incubated at 37 °C and 5% CO2 for 24 h. Then, 200 µL of MEM with 1% FBS containing a serial dilution of the compounds (100 to 12.5 µM) was added. As vehicle control, a serial dilution of DMSO was used. After 72 h of incubation under the same conditions, 100 μL of 3-(4,5-dimethylthiazol-2-yl)-2,5-diphenyltetrazolium bromide (MTT; ThermoFischer Scientific, Waltham, MA, USA) [76] diluted in MEM (0.5 mg/mL) was added to each well and incubated for 3 h. The media was removed, and 100 μL of DMSO was added to each well to solubilize formazan crystals and shaken for 20 min. The absorbance was read at 570 nm using a spectrophotometer (VersaMax, Molecular Devices, San Jose, CA, USA). The percentages of inhibition of cell viability were calculated as the ratio between the absorbance of the compound-treated cells and cells with only the vehicle. […] Linear regression (LR) was used for the analysis, considering results with r^2 > 0.9. All conditions were tested in triplicate and one independent assay (n = 3 data points).

[7] = system: Vero (ATCC CCL-81) cell line; assay: Cytotoxicity MTT assay (CC50); conditions: Vero cells
Procedure: as §1, §2

[8] = target: cruzain (Trypanosoma cruzi, UniProt P25779); assay: Cruzain counter-screening enzyme assay (Z-Phe-Arg-AMC); format: biochemical; conditions: 10 min preincubation, pH 5.5
Procedure: Cruzain activity was measured by monitoring the fluorescence signal obtained by cleavage of the fluorogenic substrate Z-Phe-Arg-AMC, following a well-established protocol. The fluorescence intensity (excitation λ: 340 nm; emission λ: 440 nm) was monitored for at least 5 min. All assays were performed in sodium acetate 0.1 M at pH 5.5 and β-mercaptoethanol 10 mM. The final protein concentration was 0.1 nM, and the substrate concentration was 2.5 µM. Each condition was tested in triplicate and two independent assays (n = 6 data points), with preincubation of the enzyme for 10 min at 25 °C. Assays were performed at compound concentrations near the IC50 value against ZIKV NS2B-NS3pro.

[9] = 0.005% Tween-20, enzyme 0.2 nM, substrate 44 µM, read-out: ZIKV NS2B/NS3pro IC50
[10] = compound 25 µM (close to IC50), enzyme 0.2 nM
[11] = compound 100 µM, 10 min preincubation
[12] = compound 100 µM, 10 min preincubation with enzyme, 0.005% Tween-20, enzyme 0.2 nM
[13] = compound 100 µM, 0.005% Tween-20
[14] = one value per independent assay (two curves per compound), read-out: IC50 of the individual curves for NS2B-NS3pro inhibitors (Figure 3)
[15] = compound 10 µM (close to IC50), enzyme 0.2 nM

cruzain, sequence (P25779 123-467): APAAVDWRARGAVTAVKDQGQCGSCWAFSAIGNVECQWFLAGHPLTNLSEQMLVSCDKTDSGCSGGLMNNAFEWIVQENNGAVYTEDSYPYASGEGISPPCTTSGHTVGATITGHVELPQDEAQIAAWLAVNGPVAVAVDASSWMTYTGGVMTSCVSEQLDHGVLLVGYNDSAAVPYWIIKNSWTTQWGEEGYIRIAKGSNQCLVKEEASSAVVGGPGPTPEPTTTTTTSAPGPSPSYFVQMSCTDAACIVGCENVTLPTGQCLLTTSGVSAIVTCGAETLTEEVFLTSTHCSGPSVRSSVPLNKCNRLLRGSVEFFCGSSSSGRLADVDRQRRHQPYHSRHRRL

| SMILES | % ZIKV NS2B/NS3pro Inhibition [Enzyme] = 0.2 nM [4, 10] [%] | % ZIKV NS2B/NS3pro Inhibition [Enzyme] = 2 nM ([4]; compound 25 µM (close to IC50)) [%] | % ZIKV NS2B/NS3pro Inhibition (100 µM) 0.001% Triton [4, 11] [%] | % ZIKV NS2B/NS3pro Inhibition (100 µM) 0.01% Triton [4, 11] [%] | % ZIKV NS2B/NS3pro Inhibition (100 µM) BSA ([4]; compound 100 µM) [%] | % ZIKV NS2B/NS3pro Inhibition (100 µM) With Preincubation [4, 12] [%] | % ZIKV NS2B/NS3pro Inhibition (100 µM) Without Preincubation [4, 13] [%] | Hill Slope Replica 1 [4] | Hill Slope Replica 2 [4] | CC50 at 72 h [6] [µM] | Cell viability as percentage of cell control (mean absorbance / CELL) ([7]; compound 12.5 µM) | Cell viability as percentage of cell control (mean absorbance / CELL) ([7]; compound 25 µM) | Cell viability as percentage of cell control (mean absorbance / CELL) ([7]; compound 50 µM) | Cell viability as percentage of cell control (mean absorbance / CELL) ([7]; compound 100 µM) | also measured |
| --- | --- | --- | --- | --- | --- | --- | --- | --- | --- | --- | --- | --- | --- | --- | --- |
| COc1ccc(Cl)c2sc(NC(=O)c3ccccc3NS(=O)(=O)c3ccc(C)cc3)nc12 [LEE-3] |  |  |  |  |  |  |  |  |  |  |  |  |  |  | cause of inhibition after resynthesis [1]: due to colloidal aggregation; mode of inhibition [1]: competitive inhibitors |
| NC(=O)c1ncn([C@@H]2O[C@H](CO)[C@@H](O)[C@H]2O)n1 [Ribavirin] |  |  |  |  |  |  |  |  |  |  |  |  |  |  | CC50 [2]: > 100 µM; EC50 [3]: 4.1 ± 0.35 µM |
| Cc1cc(C(=O)c2ccccc2NS(=O)(=O)c2ccc(F)cc2)nn1-c1ccccc1 [Compound 13] | 43 ± 0.1 | 26 ± 10 | 100 ± 0 | 45 ± 9 | 57 ± 15 | 95 ± 2 | 100 ± 1 | 5.057 | 5.334 | < 12.5 | 41.6898 | 25.5093 | 21.6435 | 12.8704 | IC50 [4, 9]: 28 ± 1 µM; IC50 [4, 14]: 29 µM; solubility in the cruzain assay buffer [5]: insoluble |
| COc1ccc(S(=O)(=O)Nc2ccccc2C(=O)Nc2nc3ccccc3s2)cc1 [LEE-2] |  |  |  |  |  |  |  |  |  |  |  |  |  |  | cause of inhibition after resynthesis [1]: due to colloidal aggregation; mode of inhibition [1]: competitive inhibitors |
| Cc1ccc(S(=O)(=O)Nc2ccccc2C(=O)Nc2nc3ccccc3[nH]2)cc1 [Compound 7] | 87 ± 0.04 | 27 ± 6 | 88 ± 5 | 12 ± 17 | 89 ± 7 | 100 ± 0 | 90 ± 8 | 2.014 | 1.056 | 32.8 ± 1.55 | 64.4267 | 53.8262 | 38.9416 | 40.3696 |  |
| O=C(Nc1nc2cccnc2[nH]1)c1ccccc1NS(=O)(=O)c1ccc(Cl)cc1 [Compound 1] | 45 ± 0.1 | 26 ± 7 | 93 ± 8 | 47 ± 34 | 69 ± 6 | 100 ± 0 | 100 ± 0 | 3.046 | 1.585 | 22 ± 0.79 | 61.7079 |  | 24.3591 | 20.1848 | inhibition at 25 µM ([8]; compound 25 µM): 97 ± 7% |
| O=C(Nc1nc2cccnc2[nH]1)c1ccccc1NS(=O)(=O)c1ccc(F)cc1 [Compound 2] | 30 ± 0.1 | 28 ± 7 | 94 ± 7 | 30 ± 19 | 32 ± 2 | 100 ± 0 | 100 ± 0 | 0.731 | 4.089 | 32.5 ± 1.95 | 77.4987 | 53.4692 | 30.8677 | 25.9519 | inhibition at 25 µM ([8]; compound 25 µM): 42 ± 11% |
| COc1cccc2sc(NC(=O)c3ccccc3CS(=O)(=O)c3ccccc3)nc12 [Compound 8] |  |  |  |  |  |  |  |  |  | 23.6 ± 1 | 57.338 | 54.3981 | 21.2269 | 17.0602 | % ZIKV NS2B/NS3pro Inhibition (100 µM) Without Preincubation ([4]; compound at 10 µM (footnote a), 0.005% Tween-20): 15 ± 11%; % ZIKV NS2B/NS3pro Inhibition (100 µM) With Preincubation ([4]; compound at 10 µM (footnote a, solubility limit), 10 min preincubation, 0.005% Tween-20, enzyme 0.2 nM): 8 ± 8% |
| COc1cccc2nc(C(=O)c3ccccc3NS(=O)(=O)c3ccc(F)c(C)c3)[nH]c12 [Compound 12] |  |  | 90 ± 5 | 5 ± 7 | 87 ± 18 | 100 ± 0 | 91 ± 9 | 1.517 | 1.742 | < 12.5 | 28.1944 | 14.2593 | 9.861 | 10 | IC50 [4, 9]: 5 ± 1 µM; % ZIKV NS2B/NS3pro Inhibition [Enzyme] = 0.2 nM [4, 15]: 94 ± 0.06%; % ZIKV NS2B/NS3pro Inhibition [Enzyme] = 2 nM ([4]; compound 10 µM (close to IC50)): 30 ± 10%; IC50 [4, 14]: 6 µM |
| O=C(Nc1nc2cnccc2[nH]1)c1ccccc1NS(=O)(=O)c1ccc(Cl)cc1 [Compound 4] | 44 ± 0.2 | 29 ± 8 | 93 ± 8 | 25 ± 15 | 45 ± 4 | 100 ± 0 | 100 ± 0 | 0.8047 | 0.5347 | 57.1 ± 1.86 | 84.584 | 66.5687 | 49.8167 | 25.183 | % Cruzain Inhibition ([8]; compound 25 µM): no inhibitory activity; inhibition at 25 µM ([8]; compound 25 µM): -12 ± 9.1% |
| O=C(Nc1nc2ccccc2[nH]1)c1ccccc1NS(=O)(=O)c1ccc(Cl)cc1 [Compound 6] | 99 ± 0.4 | 66 ± 21 | 89 ± 6 | 7 ± 9 | 55 ± 20 | 100 ± 0 | 99 ± 2 | 6.697 | 4.362 | 38.4 ± 2.18 | 63.7676 | 61.7079 | 41.6329 | 48.6633 | solubility in the cruzain assay buffer [5]: insoluble |
| O=C(Nc1nc2cccc(Cl)c2[nH]1)c1ccccc1NS(=O)(=O)c1ccc(F)cc1 [Compound 5] |  |  | 93 ± 3 | 6 ± 8 | 94 ± 8 | 100 ± 0 | 100 ± 0 | 3.333 | 1.731 | < 12.5 | 44.8735 | 19.4433 | 14.9121 | 15.1318 | % ZIKV NS2B/NS3pro Inhibition [Enzyme] = 0.2 nM [4, 15]: 62 ± 0.1%; % ZIKV NS2B/NS3pro Inhibition [Enzyme] = 2 nM ([4]; compound 10 µM (close to IC50)): 23 ± 8%; inhibition at 10 µM ([8]; compound 10 µM): 69 ± 24% |
| O=C(Nc1nc2cnccc2[nH]1)c1ccccc1NS(=O)(=O)c1ccc(F)cc1 [Compound 3] |  |  |  |  |  |  | 56 ± 11 |  |  | 120 ± 3.68 | 86.7535 | 77.5537 | 72.6654 | 56.6548 |  |
